Reference: US20230340137A1, “METHODS, THERAPIES AND USES FOR TREATING CANCER” (PFIZER INC., priority 2020, published 2023)

Assays:
[1] = tested on: MM.1S-Luc-PD-L1 multiple myeloma cells; assay: Orthotopic MM.1S-Luc-PD-L1 multiple myeloma mouse model, luminescent imaging; assay type: in vivo, NSG mice; details: BCMAxCD3 10 μg/kg single IV dose day 21, anti-PD-1 5 mg/kg IP twice a week
Description: MM.1 S-Luc multiple myeloma cells were engineered to express PD-L1 and are referred to as MM.1S-Luc-PD-L1. MM.1S-Luc-PD-L1 cells were prepared as a single cell suspension of 5×10^6 cells for intravenous (IV) inoculation into NSG mice.
Tumor growth was monitored by luminescent imaging by intraperitoneal (IP) injection of luciferin solution in DPBS and imaged using Perkin Elmer IVIS Spectrum camera system. Animals were administered 2×10^7 expanded human T cells IV 19 days after tumor cell inoculation. Two days following T cell administration, a single dose of the BCMAxCD3 bispecific (10 μg/kg) was administered as a bolus IV injection. Anti-PD-1 antibody was administered twice a week as a bolus IP injection at 5 mg/kg for a total of 6 injections.
Tumor growth was monitored via imaging measurements collected twice weekly. Mice were imaged using the Perkin Elmer IVIS Spectrum camera system with automatic parameter determination and a maximum imaging time of 3 minutes. Living Image software was used to collect the data. Regions of Interest (ROIs) were drawn around the entire body of the mouse, excluding as much as possible of the tail. Background flux, as measured on the anesthesia manifold, is subtracted from each ROI. Tumor measurements are expressed as total flux expressed in photons/sec (p/s). Study was terminated at day 40 post tumor inoculation.

[2] = Phase 1 clinical study NCT03269136, preliminary pharmacokinetic analysis; assay type: in vivo, human; details: preliminary pharmacokinetic (PK) analysis
Description: Therefore, a fixed dose is suitable for the dosing of PF-06863135. Based on the encouraging efficacy data and safety data obtained from Part I of Study, a promising RP2D for Part 2A of the study could be a fixed dose equivalent of 1000 μg/kg (ie, 76 mg) of PF-06863135 either in Q1W or Q2W. A fixed dose equivalent of 600 μg/kg (ie, 44 mg) will likely be used as a priming dose on cycle zero day 1. The initial dose of 44 mg serves as a priming dose and is designed to mitigate the CRS symptoms of the later 76 mg dose. […] Subsequently, the 44 mg (priming) and 76 mg (maintenance) were selected as the single agent RP2D dose. Patient will be administered a single priming dose of 44 mg SC of PF06863135, followed by maintenance dosing of 76 mg Q1W SC or 76 mg Q2W starting 7 days after the single priming dose.

[3] = tested on: CD8+ T cells co-cultured with MM.1S multiple myeloma cells; assay: PD-1 induction on CD8+ T cells co-cultured with MM.1S-luc cells, flow cytometry; assay type: cell-based, human; details: 1 nM BCMAxCD3 bispecific
Description: CD3+ T cells from PBMCs (Stem Cell Technologies) were negatively selected using EasySep Human T cell enrichment kit (Stem Cell Technologies). 10,000 target Multiple Myeloma MM.1S cells expressing luciferase (MM.1S-luc) were seeded with 50,000 CD3^+ pan T cells in a clear 96-well V-bottom plate. Cells were treated with 1 nM BCMAxCD3 bispecific antibody and PD-1 expression was analyzed at 3, 24, 48 and 72 hours after addition of the BCMAxCD3 bispecific. At the specified time points, cells were collected from the wells, washed with PBS+2% FBS, and stained with ZombieNlR Viability dye (Biolegend) in PBS for 20 minutes at room temperature, followed by staining with antibodies against human CD8 and PD-1 (Biolegend). Samples were analyzed using FlowJo flow cytometry analysis software. Dead cells were removed from analysis by gating on ZombieNlR negative population. Samples were further gated on CD8^+ positive population. Percentage of PD-1^+ cells is expressed as PD-1 positive cells within the CD8^+ population.

Substance: PF-06863135: heterodimeric humanized full-length bispecific antibody, one BCMA binding arm and one CD3 binding arm, modified human IgG2Δa Fc
- Tumor measurements expressed as total flux ([1]; day 15 post tumor cell inoculation (before dosing)): 1.513 × 10^7 p/s
- Tumor measurements expressed as total flux ([1]; day 18 post tumor cell inoculation (before dosing)): 8.343 × 10^7 p/s
- Tumor measurements expressed as total flux ([1]; day 20 post tumor cell inoculation (before dosing)): 1.788 × 10^8 p/s
- Tumor measurements expressed as total flux ([1]; day 25 post tumor cell inoculation): 2.2729 × 10^7 p/s
- Tumor measurements expressed as total flux ([1]; day 28 post tumor cell inoculation): 7.082 × 10^7 p/s
- Tumor measurements expressed as total flux ([1]; day 32 post tumor cell inoculation): 7.076 × 10^7 p/s
- Tumor measurements expressed as total flux ([1]; day 35 post tumor cell inoculation): 8.712 × 10^8 p/s
- Tumor measurements expressed as total flux ([1]; day 39 post tumor cell inoculation): 6.776 × 10^8 p/s
- body weight as factor on PF-06863135 exposure [2]: not a clinically relevant factor
- % PD-1 (of CD8+ T cells) ([3]; 3 hours): 12.8 ± 0.6%
- % PD-1 (of CD8+ T cells) ([3]; 24 hours): 18.9 ± 1.2%
- % PD-1 (of CD8+ T cells) ([3]; 48 hours): 69.9 ± 3.1%
- % PD-1 (of CD8+ T cells) ([3]; 72 hours): 69.9 ± 3.1%
